# Results as given in US20150258129A1, “Method for Increasing the Activity of Lysosomal Enzymes” (Mount Sinai School of Medicine of New York University, priority 1998, published 2015).
# Where a chain is given by its changes, count along the chain named. Read-outs that look alike come from different tables or passages of the source.
# Key:
# [1] = target: T1, human lysosomal α-Gal A (Homo sapiens, UniProt P06280); test: In vitro inhibition of α-Gal A (recombinant, expressed in Sf-9 insect cells); format: biochemical; settings: for IC50 / Ki: p-nitrophenyl-α-D-galactopyranoside as substrate; for IC50: pH 4.5; for reduction of inhibitory potential / affinity for α-Gal A relative to DGJ: compared with DGJ; for Ki: read-out: Ki for α-Gal A, from the slope of Lineweaver-Burk plots
# T1 construct: made in house; host or cells: Sf-9 insect cells, recombinant baculovirus
# T1 sequence (P06280 32-429): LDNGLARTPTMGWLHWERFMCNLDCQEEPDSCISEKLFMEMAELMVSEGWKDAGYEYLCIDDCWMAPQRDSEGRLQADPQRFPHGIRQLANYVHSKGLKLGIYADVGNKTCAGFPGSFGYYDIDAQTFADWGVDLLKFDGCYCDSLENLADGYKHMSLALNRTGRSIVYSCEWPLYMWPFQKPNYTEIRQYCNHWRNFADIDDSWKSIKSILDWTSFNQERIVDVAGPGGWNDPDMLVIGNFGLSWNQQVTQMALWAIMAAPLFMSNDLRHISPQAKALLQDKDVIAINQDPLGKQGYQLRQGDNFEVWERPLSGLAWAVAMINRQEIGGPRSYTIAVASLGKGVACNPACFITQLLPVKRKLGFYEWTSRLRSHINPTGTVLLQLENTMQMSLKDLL
# [2] = target: human β-glucocerebrosidase (Homo sapiens, UniProt P04062); test: In vitro inhibition of human β-glucocerebrosidase; format: biochemical; settings: for IC50: 0.1M citrate buffer (pH 5.2), 4-MU-β-Glu as substrate
# [3] = target: T2, glucocerebrosidase (β-Glu), N370S/N370S (Homo sapiens, UniProt P04062, N409S); test: Intracellular enhancement of β-Glu activity in Gaucher fibroblasts (N370S/N370S); format: cell-based; settings: for intracellular β-Glu activity in Gaucher fibroblasts (summary): concentration ranges of 0.05-100 μM
# T2 construct: endogenous in cells; host or cells: human Gaucher patient fibroblasts, genotype N370S/N370S
# T2 sequence (P04062 40-536 N409S): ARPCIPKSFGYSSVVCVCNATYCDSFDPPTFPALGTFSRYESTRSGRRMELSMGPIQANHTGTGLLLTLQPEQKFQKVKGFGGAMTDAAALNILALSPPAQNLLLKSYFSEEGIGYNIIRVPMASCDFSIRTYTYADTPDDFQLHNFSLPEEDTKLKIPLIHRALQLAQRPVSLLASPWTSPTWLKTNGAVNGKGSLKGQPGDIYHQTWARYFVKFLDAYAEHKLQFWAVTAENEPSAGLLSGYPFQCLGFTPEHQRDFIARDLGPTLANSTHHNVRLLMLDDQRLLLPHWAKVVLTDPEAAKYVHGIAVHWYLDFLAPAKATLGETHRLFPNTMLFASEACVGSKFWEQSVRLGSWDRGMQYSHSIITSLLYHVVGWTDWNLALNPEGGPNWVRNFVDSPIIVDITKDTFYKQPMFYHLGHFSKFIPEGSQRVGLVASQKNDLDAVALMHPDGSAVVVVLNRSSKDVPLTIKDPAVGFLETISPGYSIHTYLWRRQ
# [4] = target: T3, mutant α-Gal A (R301Q) (Homo sapiens, UniProt P06280, R301Q); test: Intracellular enhancement of α-Gal A activity in Fabry lymphoblasts; format: cell-based; set-up: endogenous in cells; host or cells: Epstein-Barr virus-transformed lymphoblasts from a Fabry patient (R301Q); settings: for intracellular α-Gal A activity in Fabry lymphoblasts (summary): concentration ranges of 10-1000 μM; for α-Gal A activity in R301Q lymphoblasts with increasing concentration of calystegine compound: range 100-1000 μM, FIG. 6; for α-Gal A activity in R301Q lymphoblasts with increasing concentration of calystegine compound / increase of α-Gal A enzyme activity in R301Q lymphoblasts / enhancement of α-Gal A activity in R301Q lymphoblasts: 4 days; for increase of α-Gal A enzyme activity in R301Q lymphoblasts: inhibitor at 100 μM; for enhancement of α-Gal A activity in R301Q lymphoblasts: inhibitor at 1000 μM
# T3 sequence (P06280 32-429 R301Q): T1 sequence (P06280 32-429) with R270Q
# Method: FIG. 4B depicts results in which each inhibitor was added to the culture medium of R301Q lymphoblasts at a concentration of 100 μM. Cells were subsequently incubated for 4 days. After being washed twice with phosphate-buffered saline, the intracellular enzyme activity was determined with 4-MU-α-Gal as the substrate.
# R301Q lymphoblasts were cultured with DGJ (4) ([…]), α-allo-HNJ (9) (▪), α-galacto-HNJ (10) (▴), or β-1-C-butyl-DGJ (16) (♦) at 1-1000 μM for 4 days before being collected for enzyme assay.
# In FIG. 6B, R301Q lymphoblasts were cultured with calystegine B2 (18) and the results are shown therein. In FIG. 6C, R301Q lymphoblasts were cultured with N-methyl calystegine A3 (19) and the results are shown therein. In FIG. 6D R301Q lymphoblasts were cultured with N-methyl calystegine B2 (20) at 100-1000 μM for 4 days before being collected for enzyme assay and the results are shown therein.
# The Epstein-Barr virus-transformed lymphoblast lines from a normal adult and a Fabry patient with R301Q mutation in α-Gal A (38) were cultured in RPMI-1640 medium (Nissui Pharmaceutical Co., Tokyo, Japan) supplemented with 10% fetal calf serum (FCS) at 37° C. under 5% CO2. Human fibroblasts from Gaucher and GM1-gangliosidosis patients were cultured in McCoy 5A medium supplemented with 10% FCS at 37° C. under 5% CO2.
# Cells were cultured in the presence or absence of inhibitor for 4 days. After being washed twice with phosphate-buffered saline (PBS), the cells were harvested and homogenized in 200 μl of H2O, and 10 μl of the supernatant obtained by centrifugation at 10,000 g was incubated at 37° C. with 50 μl of the substrate solution composed by 6 mM 4-methylumbelliferyl α-D-galactoside (4-MU-α-Gal) and 90 mM N-acetylgalactosamine in 0.1 M citrate buffer (pH 4.5) for enzyme assay. One unit of intracellular enzyme activity was defined as one nmol of 4-methylumbelliferone released per hour at 37° C.
# [5] = IC30 and (Ki)*: IC50 values (inhibitor concentration giving 50% inhibition) for α-Gal A
# [6] = N370S/N370S, compound at 10 μM, 5 days
# [7] = N370S/N370S, compound at 100 μM, 5 days
# [8] = read-out: IC30 and (Ki)*: IC50 values (inhibitor concentration giving 50% inhibition) for α-Gal A
# Sequence of human β-glucocerebrosidase (P04062 40-536): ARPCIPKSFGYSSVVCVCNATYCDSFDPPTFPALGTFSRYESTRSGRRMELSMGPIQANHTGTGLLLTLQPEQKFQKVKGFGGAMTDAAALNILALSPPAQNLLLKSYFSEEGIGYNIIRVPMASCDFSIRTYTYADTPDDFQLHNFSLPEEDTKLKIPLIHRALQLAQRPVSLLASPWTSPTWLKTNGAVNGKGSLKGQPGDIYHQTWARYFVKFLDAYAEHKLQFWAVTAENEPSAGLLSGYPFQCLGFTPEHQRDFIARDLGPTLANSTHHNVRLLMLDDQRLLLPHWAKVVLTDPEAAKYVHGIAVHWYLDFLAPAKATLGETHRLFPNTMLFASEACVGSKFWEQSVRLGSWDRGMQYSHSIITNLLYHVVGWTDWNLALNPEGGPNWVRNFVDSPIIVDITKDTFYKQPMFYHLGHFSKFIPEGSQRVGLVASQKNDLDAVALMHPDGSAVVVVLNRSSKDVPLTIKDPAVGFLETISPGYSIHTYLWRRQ
molecule,measurement,setting,value
"OCC1NCCC(O)C1O (stereo not drawn) [compound 6, 1,2-dideoxy-galactonojirimycin]",IC50,[1]; [5],250 µM
same,reduction of inhibitory potential / affinity for α-Gal A relative to DGJ,[1],over 6000 fold
"CCCCN1C[C@H](CO)[C@@H](O)[C@H](O)C1 [compound 34, N-Butyl-isofagomine]",IC50,[2],44 µM
same,elevation of residual β-Glu activity in Gaucher cells,[3]; [6],73%
same,elevation of residual β-Glu activity in Gaucher cells,[3]; [7],56%
same,intracellular β-Glu activity in Gaucher fibroblasts (summary),[3],effectively enhance
"CCCN1CC(O)C(O)C(O)C1CO (stereo not drawn) [compound 13, N-Propyl-1-deoxygalactonojirimycin]",IC50,[1]; [5],301 µM
"CC(C)=CCC/C(C)=C\CC/C(C)=C/CN1CC(O)C(O)C(CO)C1 (stereo not drawn) [compound 37, N-[(2E,6Z,10Z)-3,7,11-trimethyldodecatrienyl]-isofagomine]",IC50,[2],1.5 µM
same,increase in potency against β-Glu compared with the 4 carbon chain compound,[2]; compared with compound 32 (so in the source),30 fold
same,elevation of residual β-Glu activity in Gaucher cells,[3]; [6],43%
same,decrease of residual β-Glu activity in Gaucher cells,[3]; [7],53%
same,intracellular β-Glu activity in Gaucher fibroblasts (summary),[3],effectively enhance
"OCC1NC(CO)C(O)C(O)C1O (stereo not drawn) [compound 8, α-homomannojirimycin]",inhibition of α-Gal A (in words),[1],weak inhibitor
same,IC50,[1]; [5],464 µM
"OCC1CN(CCCC2CCCCC2)CC(O)C1O (stereo not drawn) [compound 35, N-(3-cyclohexylpropyl)-isofagomine]",IC50,[2],100 µM
same,elevation of residual β-Glu activity in Gaucher cells,[3]; [6],106%
same,elevation of residual β-Glu activity in Gaucher cells,[3]; [7],47%
same,intracellular β-Glu activity in Gaucher fibroblasts (summary),[3],effectively enhance
"CN1C2CCC1(O)C(O)C(O)C2 (stereo not drawn) [compound 19, N-methyl calystegine A3]",intracellular α-Gal A activity in Fabry lymphoblasts (summary),[4],effectively increase
same,α-Gal A activity in R301Q lymphoblasts with increasing concentration of calystegine compound,[4],elevated with increasing concentration
"OCCN1CC(O)C(O)C(O)C1CO (stereo not drawn) [compound 15, N-Hydroxyethyl-1-deoxygalactonojirimycin]",IC50,[1]; [5],520 µM
"OCC1CN(CCCc2ccccc2)CC(O)C1O (stereo not drawn) [compound 36, N-(3-phenylpropyl)-isofagomine]",IC50,[2],69 µM
same,elevation of residual β-Glu activity in Gaucher cells,[3]; [6],50%
same,elevation of residual β-Glu activity in Gaucher cells,[3]; [7],54%
same,intracellular β-Glu activity in Gaucher fibroblasts (summary),[3],effectively enhance
"OC1CC2(O)NC1C(O)C(O)C2O (stereo not drawn) [compound 26, calystegine C1]",IC50,[2],2.5 µM
same,intracellular β-Glu activity in Gaucher fibroblasts (summary),[3],effectively enhance
"OCC1NC(CO)C(O)C(O)C1O (stereo not drawn) [compound 7, α-Homonojirimycin]",inhibition of α-Gal A (in words),[1],not an inhibitor
same,IC50,[1]; [5],> 1000 µM
"O[C@@H]1[C@@H](O)C[C@]2(O)CC[C@H]1N2 [compound 22, calystegine A5]",IC50,[2],31 µM
"OCC1NCC(O)C(O)C1O (stereo not drawn) [compound 2, 1-Deoxymannojirimycin]",inhibition of α-Gal A (in words),[1],no appreciable inhibition even at 1000 μM
DNJ bisulfite [compound 32],IC50,[2],28 µM
"OC[C@H]1N[C@H](CO)[C@H](O)C(O)[C@H]1O (stereo partly drawn) [compound 10, α-Homogalactonojirimycin]",inhibition mode toward α-Gal A (Lineweaver-Burk plots),[1],competitive inhibitors
same,reduction of inhibitory potential / affinity for α-Gal A relative to DGJ,[1],approximately 4 fold
same,Ki,[1],0.17 µM
same,IC50,[1]; [8],0.21 µM
same,intracellular α-Gal A activity in Fabry lymphoblasts (summary),[4],effectively increase
same,increase of α-Gal A enzyme activity in R301Q lymphoblasts,[4],5.2 fold
same,enhancement of α-Gal A activity in R301Q lymphoblasts,[4],12.5 fold
"CCN1CC(O)C(O)C(O)C1CO (stereo not drawn) [compound 12, N-Ethyl-1-deoxygalactonojirimycin]",IC50,[1]; [5],306 µM
"OCC1NCC(O)C(O)C1O (stereo not drawn) [compound 3, 1-Deoxy-3-epi-nojirimycin]",inhibition of α-Gal A (in words),[1],no appreciable inhibition even at 1000 μM
"CN1C2CCC1(O)C(O)C(O)C2O (stereo not drawn) [compound 20, N-methyl calystegine B2]",IC50,[2],320 µM
same,intracellular α-Gal A activity in Fabry lymphoblasts (summary),[4],effectively increase
same,α-Gal A activity in R301Q lymphoblasts with increasing concentration of calystegine compound,[4],elevated with increasing concentration
"OC[C@H]1NC[C@@H](O)[C@@H]1O [compound 28, 1,4-dideoxy-1,4-imino-D-arabinitol]",IC50,[2],160 µM
"OC[C@H]1NC[C@H](O)[C@H](O)[C@H]1O [compound 5, 1-deoxy-3,4-diepi-nojirimycin]",inhibition of α-Gal A (in words),[1],no appreciable inhibition even at 1000 μM
"CN1CC(O)C(O)C(O)C1CO (stereo not drawn) [compound 11, N-Methyl-1-deoxygalactonojirimycin]",IC50,[1]; [5],96 µM
"OC[C@H]1N[C@H](CO)[C@@H](O)C(O)[C@H]1O (stereo partly drawn) [compound 9, α-homoallonojirimycin]",inhibition mode toward α-Gal A (Lineweaver-Burk plots),[1],competitive inhibitors
same,Ki,[1],2.6 µM
same,IC50,[1]; [8],4.3 µM
same,intracellular α-Gal A activity in Fabry lymphoblasts (summary),[4],effectively increase
same,increase of α-Gal A enzyme activity in R301Q lymphoblasts,[4],2.4 fold
same,enhancement of α-Gal A activity in R301Q lymphoblasts,[4],3.9 fold
"O[C@@H]1[C@@H](O)[C@H]2CC[C@](O)(N2)[C@@H]1O [compound 24, calystegine B3]",IC50,[2],76 µM
"O[C@@H]1C[C@]2(O)N[C@H]1C[C@@H](O)[C@@H]2O [compound 23, calystegine B1]",IC50,[2],2.5 µM
same,intracellular β-Glu activity in Gaucher fibroblasts (summary),[3],effectively enhance
"O[C@@H]1[C@H](O)[C@H]2CC[C@](O)(N2)[C@H]1O [compound 25, calystegine B4]",IC50,[2],82 µM
